Where two headings read alike, the source gives them in different places.
Tests used:
[1] = target: DCN1 protein (Homo sapiens (Human), UniProt Q96GG9); assay: Intact protein MS analysis with the RapidFire-TOF system (covalent adduct formation); format: binding; conditions: 400 nM DCN1, incubated at room temperature for 3 hours
Experimental: (§1) DCN1 protein, His-TEV-DCN1, were expressed in E. Coli. The His-tagged protein was first purified with an Ni-NTA column. The His-tag was cleaved using His-tag TEV protease and the His-tags were removed using a second Ni-NTA column. Protein purity was verified with SDS-PAGE and intact MS. DCN1 was dissolved in a buffer containing 25 mM Tris-HCl, 200 mM NaCl, and 1 mM DTT at 400 nM. 11 concentrations of compounds were added to the DCN1 solution and incubated at room temperature for 3 hours, unless otherwise specified. The reaction plates were quenched by adding 0.2% formic acid. Quenched assay plates were analyzed with an Agilent RapidFire 360 system connected to an Agilent 6545 Q-TOF mass spectrometer equipped with an AJS source. 10 μL of sample volume was loaded onto a custom packed cartridge (4 μL, PLRP-S 30 μm/1000 Å pore; Optimize Technologies) with loading buffer (ddH2O with 0.09% (vol/vol) formic acid and 0.01% (vol/vol) trifluoroacetic acid; 1.25 ml/min) for 6 seconds before being eluted directly into the mass spectrometer in elution buffer (80% acetonitrile with 0.09% (vol/vol) formic acid and 0.01% (vol/vol) trifluoroacetic acid; 0.5 ml/min) for 7 seconds. The cartridge was re-equilibrated with loading buffer for 1 second before collection of the next sample. The Q-TOF was operated in TOF-only positive ionization mode set to the following parameters: Gas Temp=350 C, Drying Gas=7 l/min, Nebulizer=50 psi, Sheath Gas Temp=400 C, Sheath Gas Flow=12 l/min, VCap=4000 V, Nozzle Voltage=1000 V, Fragmentor=125 V, Skimmer=65 V and Oct 1 RF Vpp=750V. Raw MS data files were deconvoluted and analyzed using the Agilent MassHunter Bioconfirm software package to identify both parent protein and expected compound adduct mass signatures.
An MS assay was performed to evaluate the ability of the compounds to covalently modify DCN-1.
as §1, with “Vcap=4000” for “VCap=4000”

[2] = target: DCN1 (DCUND1) protein PONY domain (Homo sapiens (Human), UniProt Q96GG9); assay: TR-FRET assay (binding to DCN-1, displacement of FAM-labeled probe)
Sequence of DCN1 (DCUND1) protein PONY domain (Q96GG9 60-248): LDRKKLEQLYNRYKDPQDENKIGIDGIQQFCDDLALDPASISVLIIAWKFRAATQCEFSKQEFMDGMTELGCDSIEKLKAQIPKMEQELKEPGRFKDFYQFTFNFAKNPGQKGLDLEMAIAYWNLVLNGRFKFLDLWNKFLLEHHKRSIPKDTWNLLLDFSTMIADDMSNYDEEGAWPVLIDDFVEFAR
Outline: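 Compounds read at 1, 5 and 24 h, 0.1% final DMSO, by TR-FRET between terbium-streptavidin on biotinylated DCN1 PONY domain (E. coli) and a FAM-tagged non-covalent inhibitor probe. Two setups used, 5 nM protein with 20 nM labelled probe, or 0.31 nM protein with 100 nM labelled plus 800 nM unlabelled probe; buffer had TritonX and 200 mM NaCl. % activity relative to high (with probe) and low (without probe) controls.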

[3] = 24 hr after treatment with compound, read-out: TR FRET IC50 24 hr
[4] = TR FRET IC50 1 hr (nM), 1 hr after treatment with compound

Sequence of DCN1 protein (Q96GG9 whole entry): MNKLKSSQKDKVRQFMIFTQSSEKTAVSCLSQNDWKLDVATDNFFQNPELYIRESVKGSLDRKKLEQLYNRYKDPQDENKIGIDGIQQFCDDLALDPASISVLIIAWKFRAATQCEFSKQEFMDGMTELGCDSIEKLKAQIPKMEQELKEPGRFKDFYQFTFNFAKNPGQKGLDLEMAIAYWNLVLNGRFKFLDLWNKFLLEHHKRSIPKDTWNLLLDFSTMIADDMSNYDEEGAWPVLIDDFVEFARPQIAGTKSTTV

| Structure (SMILES) | Emax [1] [%] | further results |
| --- | --- | --- |
| CCN1C(=O)[C@@H](NC(=O)c2cccc(C(F)(F)F)c2)[C@@H](c2cccc(NC(=O)COc3c(F)c(F)cc(F)c3F)c2)c2c(C)nn(-c3ccccc3)c21 (racemic) [Compound I-206] | 0 to 30 |  |
| CCN1C(=O)[C@H](NC(=O)c2cccc(C(F)(F)F)c2)[C@@H](c2ccccc2NC(=O)COc2c(F)c(F)cc(F)c2F)c2cnn(-c3ccccc3)c21 (racemic) [Compound I-200] | 0 to 30 |  |
| C=C(F)C(=O)Nc1ccccc1[C@H]1c2cnn(-c3ccccc3)c2N(CC)C(=O)[C@@H]1NC(=O)c1cccc(C(F)(F)F)c1 (racemic) [Compound I-199] | 0 to 30 |  |
| CCN1C(=O)[C@H](NC(=O)c2cccc(C(F)(F)F)c2)[C@@H](c2ccccc2NS(=O)(=O)CCl)c2cnn(-c3ccccc3)c21 (racemic) [Compound I-175] | 0 to 30 |  |
| C#CC(=O)Nc1cccc([C@H]2c3c(C)nn(-c4ccccc4)c3N(CC)C(=O)[C@H]2NC(=O)c2cccc(C(F)(F)F)c2)c1 (racemic) [Compound I-173] | 30 to 80 |  |
| CCN1C(=O)[C@H](NC(=O)c2cccc(C(F)(F)F)c2)[C@@H](c2ccccc2NC(=O)/C=C/C(F)(F)F)c2cnn(-c3ccccc3)c21 (racemic) [Compound I-168] | 0 to 30 |  |
| CCN1C(=O)[C@H](NC(=O)c2cccc(C(F)(F)F)c2)[C@@H](c2ccccc2NC(=O)C2=CCCC2)c2cnn(-c3ccccc3)c21 (racemic) [Compound I-188] | 0 to 30 |  |
| CC#CC(=O)Nc1cccc([C@H]2c3c(C)nn(-c4ccccc4)c3N(CC)C(=O)[C@@H]2NC(=O)c2cccc(C(F)(F)F)c2)c1 (racemic) [Compound I-193] | 30 to 80 |  |
| CCN1C(=O)[C@@H](NC(=O)c2cccc(C(F)(F)F)c2)[C@@H](c2cccc(NC(=O)/C=C/CN(C)C)c2)c2c(C)nn(-c3ccccc3)c21 (racemic) [Compound I-192] | 0 to 30 |  |
| CCN1C(=O)[C@@H](NC(=O)c2cccc(C(F)(F)F)c2)[C@H](c2ccccc2NC(=O)CCl)c2cnn(-c3ccccc3)c21 [Compound I-197, N-((4R,5S)-4-(2-(2-chloroacetamido)phenyl)-7-ethyl-6-oxo-1-phenyl-4,5,6,7-tetrahydro-1H-pyrazolo[3,4-b]pyridin-5-yl)-3-(trifluoromethyl)benzamide] | 80 to 100 |  |
| CCN1C(=O)[C@@H](NC(=O)c2cccc(C(F)(F)F)c2)[C@@H](c2cccc(NC(=O)CCl)c2)c2c(C)nn(-c3ccccc3)c21 (racemic) [Compound I-203] | 0 to 30 |  |
| C=CS(=O)(=O)Nc1ccccc1[C@H]1c2cnn(-c3ccccc3)c2N(CC)C(=O)[C@@H]1NC(=O)c1cccc(C(F)(F)F)c1 (racemic) [Compound I-166] | 80 to 100 |  |
| CCN1C(=O)[C@H](NC(=O)c2cccc(C(F)(F)F)c2)[C@@H](c2ccccc2NC(=O)/C(C#N)=C/C2CC2)c2cnn(-c3ccccc3)c21 (racemic) [Compound I-179] | 80 to 100 |  |
| CCN1C(=O)[C@H](NC(=O)c2cccc(C(F)(F)F)c2)[C@@H](c2ccc(F)cc2NC(=O)CC#N)c2cnn(-c3ccccc3)c21 (racemic) [Compound I-187] | 0 to 30 |  |
| CCN1C(=O)[C@H](NC(=O)c2cccc(C(F)(F)F)c2)[C@@H](c2ccccc2NC(=O)/C=C/CN2CCOCC2)c2cnn(-c3ccccc3)c21 (racemic) [Compound I-176] | 0 to 30 |  |
| C=C(C)C(=O)Nc1ccccc1[C@H]1c2cnn(-c3ccccc3)c2N(CC)C(=O)[C@@H]1NC(=O)c1cccc(C(F)(F)F)c1 (racemic) [Compound I-183] | 0 to 30 |  |

| Structure (SMILES) | Emax [1] [%] | further results |
| --- | --- | --- |
| CCN1C(=O)[C@H](NC(=O)c2cccc(C(F)(F)F)c2)[C@@H](c2ccccc2NC(=O)CCl)c2cnn(-c3ccccc3)c21 [Compound I-178, N-((4S,5R)-4-(2-(2-chloroacetamido)phenyl)-7-ethyl-6-oxo-1-phenyl-4,5,6,7-tetrahydro-1H-pyrazolo[3,4-b]pyridin-5-yl)-3-(trifluoromethyl)benzamide] |  | % Adduct Formation (MS Emax) [1]: + (MS Emax % adduct formation greater than or equal to 0.0 and less than or equal to 30.0) |
| C#CC(=O)Nc1ccccc1[C@H]1c2cnn(-c3ccccc3)c2N(CC)C(=O)[C@@H]1NC(=O)c1cccc(C(F)(F)F)c1 (racemic) [Compound I-194] | 80 to 100 |  |
| C=CC(=O)Nc1ccccc1[C@H]1c2cnn(-c3ccccc3)c2N(CC)C(=O)[C@@H]1NC(=O)c1cccc(C(F)(F)F)c1 (racemic) [Compound I-190] | 30 to 80 |  |
| CCN1C(=O)[C@H](NC(=O)c2cccc(C(F)(F)F)c2)[C@@H](c2ccccc2NC(=O)CCl)c2c(C)nn(-c3ccccc3)c21 (racemic) [Compound I-208] | 80 to 100 |  |
| CCN1C(=O)[C@H](NC(=O)c2cccc(C(F)(F)F)c2)[C@@H](c2ccccc2NC(=O)/C=C/CN(C)C)c2cnn(-c3ccccc3)c21 (racemic) [Compound I-196] | 0 to 30 |  |
| C=CS(=O)(=O)Nc1cccc([C@H]2c3c(C)nn(-c4ccccc4)c3N(CC)C(=O)[C@@H]2NC(=O)c2cccc(C(F)(F)F)c2)c1 (racemic) [Compound I-5] | 80 to 100 |  |
| CCN1C(=O)[C@@H](NC(=O)c2cccc(C(F)(F)F)c2)[C@@H](c2cccc(NC(=O)C3=CCC3)c2)c2c(C)nn(-c3ccccc3)c21 [Compound I-202] | 0 to 30 |  |
| C=C(CN1CCOCC1)C(=O)Nc1cccc([C@H]2c3c(C)nn(-c4ccccc4)c3N(CC)C(=O)[C@H]2NC(=O)c2cccc(C(F)(F)F)c2)c1 (racemic) [Compound I-172] |  | % Adduct Formation (MS Emax) [1]: + (MS Emax % adduct formation greater than or equal to 0.0 and less than or equal to 30.0) |
| C=C(CN(C)C)C(=O)Nc1ccccc1[C@H]1c2cnn(-c3ccccc3)c2N(CC)C(=O)[C@@H]1NC(=O)c1cccc(C(F)(F)F)c1 (racemic) [Compound I-177] | 30 to 80 |  |
| C/C=C/C(=O)Nc1ccccc1[C@H]1c2cnn(-c3ccccc3)c2N(CC)C(=O)[C@@H]1NC(=O)c1cccc(C(F)(F)F)c1 (racemic) [Compound I-189] | 0 to 30 |  |
| CCN1C(=O)[C@@H](NC(=O)c2cccc(C(F)(F)F)c2)[C@@H](c2cccc(NC(=O)/C=C/CN3CCOCC3)c2)c2c(C)nn(-c3ccccc3)c21 (racemic) [Compound I-205] | 0 to 30 |  |
| C/C=C/C(=O)Nc1cccc([C@H]2c3c(C)nn(-c4ccccc4)c3N(CC)C(=O)[C@@H]2NC(=O)c2cccc(C(F)(F)F)c2)c1 (racemic) [Compound I-164] | 0 to 30 |  |
| C=C(CN1CC2CCC(C1)O2)C(=O)NCc1cccc([C@@H]2c3cnn(-c4ccccc4)c3N(CC)C(=O)[C@H]2NC(=O)c2nccc(C(F)(F)F)n2)c1 [Compound I-292] |  | IC50 [2, 3]: ≤ 200 nM; IC50 ([2]; read-out: TR FRET IC50 1 hr, 1 hr after treatment with compound): ≤ 200 nM |
| CCN1C(=O)[C@H](NC(=O)c2cccc(C(F)(F)F)c2)[C@@H](c2cccc(NC(=O)C#CCN3CCOCC3)c2)c2c(C)nn(-c3ccccc3)c21 (racemic) [Compound I-139, rac-N-((4R,5S)-7-ethyl-3-methyl-4-(3-(4-morpholinobut-2-ynamido)phenyl)-6-oxo-1-phenyl-4,5,6,7-tetrahydro-1H-pyrazolo[3,4-b]pyridin-5-yl)-3-(trifluoromethyl)benzamide] |  | IC50 [2, 3]: 200 to 1000 nM; IC50 [2, 4]: 1000 to 3000 nM |
| C=C(CN1CCC12COC2)C(=O)N(C)Cc1cccc([C@@H]2c3cnn(-c4ccccc4)c3N(CC)C(=O)[C@H]2NC(=O)c2ccn(C(F)(F)F)n2)c1 [Compound I-371] |  | IC50 [2, 3]: 200 to 1000 nM; IC50 [2, 4]: 1000 to 3000 nM |

Source: patent publication US12435087B2, “Modulators of DCN-1 and methods of use thereof” (Cellarity, Inc., priority 2023, dated 2025)
